Where two headings read alike, the source gives them in different places.
Columns and labels:
[1] = biological target: T1, Aβ fibrils (Homo sapiens, UniProt P05067); details: read-out: Binding Affinity Ki; cited from earlier work
T1 construct: Aβ monomer

[2] = biological target: oligomers/polymers (Aβ1-42) (Homo sapiens, UniProt P05067); assay: Biacore assay, Aβ42 oligomers/soluble polymers; assay type: binding; parameters: key: A “+” sign represents a hit; ++: the increase in “+” signs relates to increasing binding affinity; +++: the increase in “+” signs relates to increasing binding affinity; A “−”sign represents no binding; details: 10 uM
Protocol: β-Amyloid (Aβ42) Soluble Aggregates (Oligomers/Soluble Polymers). Biotin-LC-Aβ42 was mixed with Aβ42 at a ratio of 3:2. After dissolving in 1% NH4OH and dH2O, the mixture (40 uM concentration) was incubated in 1×PBS (pH 7.4) buffer at RT for 6-hours to form oligomers/soluble polymers. The free monomer of Aβ42 in the sample was removed using a Microcon centrifugal filter tube with a 10 KDa of MW cutoff. The Biotin-LC-Aβ42 oligomers/polymers were immobilized onto SA chip by streptavidin-biotin capture. Screening of Amyloid Binding Compounds with Biacore (Surface Plasmon Resonance Analysis). Aβ42 oligomers/soluble polymers or fibrils were immobilized on Flow Cell 2 (Fc2) or Flow Cell 3 (Fc3) of the Sensor Chip, with Fc1 serving as the control. […] The Flow Cells were then washed with running buffer (1×PBS) for 2 minute, and regenerated with 50 mM of NaOH for 30 seconds. The real time interaction between the screening compound and the amyloid aggregates immobilized on the chip surface was recorded in the sensorgram.

[3] = biological target: fibrils (Aβ1-42) (Homo sapiens, UniProt P05067); assay: Biacore assay, Aβ42 fibrils; assay type: binding; parameters: key: A “+” sign represents a hit; ++: the increase in “+” signs relates to increasing binding affinity; +++: the increase in “+” signs relates to increasing binding affinity; A “−”sign represents no binding; details: 10 uM
Protocol: β-Amyloid (Aβ42) Insoluble Aggregates (Fibrils). Fibrils were prepared according to methods published previously ([…] et al. 2001). Briefly, 0.5 mg of Aβ42 (Biotin-LC-Aβ42:Aβ42=1:1) was dissolved in 1 ml of PBS, pH 7.4, and mixed with a magnetic stir bar for 3 d at 37° C., resulting in a visibly cloudy solution. The fibril pellet was collected by centrifugation. The Biotin-LC-Aβ42 fibrils were immobilized onto SA chip by streptavidin-biotin capture. Screening of Amyloid Binding Compounds with Biacore (Surface Plasmon Resonance Analysis). Aβ42 oligomers/soluble polymers or fibrils were immobilized on Flow Cell 2 (Fc2) or Flow Cell 3 (Fc3) of the Sensor Chip, with Fc1 serving as the control. […] The Flow Cells were then washed with running buffer (1×PBS) for 2 minute, and regenerated with 50 mM of NaOH for 30 seconds. The real time interaction between the screening compound and the amyloid aggregates immobilized on the chip surface was recorded in the sensorgram.

[4] = Grey to white matter binding, autoradiography of AD patient brain slices; parameters: species or system human
Protocol: A study was conducted to examine the grey to white matter binding ratios for 4 different tracers: CB-001, CB-003, FDDNP and F-PiB (FIG. 7 and FIG. 8 of U.S. Ser. No. 12/372,717). […] After the human brain slices from AD patients were incubated with a given tracer for 30 min, the slices were washed with various EtOH:water solutions in an attempt to optimize the grey to white matter ratios (FIG. 9 of U.S. Ser. No. 12/372,717). The results were surprising and unexpected in view of previous work performed by other researchers. CB-001 has a slightly higher c Log P than FDDNP (3.8 vs 3.4) and would be expected to have poorer washout than FDDNP based on these values. […] More specifically, the white matter binding of FDDNP is several shades darker than CB-001's white matter binding, indicating low non-specific binding of CB-001.

[5] = microPET imaging of AD-CB-001 in rat; assay type: in vivo, Sprague-Dawley rat; details: tail vein, 30 min dynamic microPET scan
Protocol: A white Sprague-Dawley rat was injected via tail vein with ˜850 uCi AD-CB-001, formulated in 10% EtOH:water. A dynamic scan was conducted for 30 min on a R4 microPET scanner. The data was reconstructed using 1 min framing.

[6] = test system: amyloid binding pockets; assay: Blocking of [18F]-CB001 autoradiography staining
[7] = biological target: T2, MAO-B (Homo sapiens, UniProt P27338); assay: MAO inhibition, MAO-B; assay type: biochemical
T2 sequence (P27338 1-520): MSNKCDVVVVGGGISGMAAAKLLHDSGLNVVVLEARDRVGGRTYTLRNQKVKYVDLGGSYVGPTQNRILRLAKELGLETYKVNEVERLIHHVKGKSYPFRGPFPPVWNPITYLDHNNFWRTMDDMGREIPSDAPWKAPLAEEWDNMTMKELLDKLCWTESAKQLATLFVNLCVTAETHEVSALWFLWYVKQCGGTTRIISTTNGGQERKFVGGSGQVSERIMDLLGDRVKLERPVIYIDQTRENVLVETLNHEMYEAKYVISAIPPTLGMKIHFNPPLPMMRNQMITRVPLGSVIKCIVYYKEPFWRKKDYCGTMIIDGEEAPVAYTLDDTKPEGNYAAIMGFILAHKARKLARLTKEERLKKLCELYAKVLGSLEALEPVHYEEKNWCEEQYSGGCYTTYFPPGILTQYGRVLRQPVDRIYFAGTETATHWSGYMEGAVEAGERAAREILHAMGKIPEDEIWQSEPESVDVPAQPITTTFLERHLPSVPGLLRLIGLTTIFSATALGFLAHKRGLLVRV

[8] = Brain uptake in rats and mice; assay type: in vivo
[9] = test system: CNS selectivity panel; assay: CNS selectivity panel (hits); assay type: binding
[10] = background in normal brain; assay type: binding
Excerpt: (§1) Furthermore, the selectivity can be evaluated in brains containing only Aβ plaques/no tau aggregates, Aβ plaques/and tau aggregates, and control brains. Unfortunately, there are no AD brains with only tau and no Aβ present. By testing radiolabeled tracers in these brain sections, one can more quantitative evaluate the relative binding strength (signal strength) and selectivity of various test compounds as they all contain the same radioactive tracer. For examples, if a test tracer binds only to tau, and not amyloid, it should show no signal in the Aβ plaques only brain sections. If a compound binds only to amyloid, it should show uptake in both types of brains. The difficulty of identifying and further quantifying selective compounds lies in the relative abundance of amyloid vs. tau, which is difficult to measure.

[11] = GM Intensity (comp. with W372); assay type: binding; details: compared with W372
[12] = test system: tau/Ab; assay: selectivity (tau/Ab); assay type: binding
Excerpt: as §1

[13] = biological target: T3, MAO-A (Homo sapiens, UniProt P21397); assay: MAO inhibition, MAO-A; assay type: biochemical
T3 sequence (P21397 1-527): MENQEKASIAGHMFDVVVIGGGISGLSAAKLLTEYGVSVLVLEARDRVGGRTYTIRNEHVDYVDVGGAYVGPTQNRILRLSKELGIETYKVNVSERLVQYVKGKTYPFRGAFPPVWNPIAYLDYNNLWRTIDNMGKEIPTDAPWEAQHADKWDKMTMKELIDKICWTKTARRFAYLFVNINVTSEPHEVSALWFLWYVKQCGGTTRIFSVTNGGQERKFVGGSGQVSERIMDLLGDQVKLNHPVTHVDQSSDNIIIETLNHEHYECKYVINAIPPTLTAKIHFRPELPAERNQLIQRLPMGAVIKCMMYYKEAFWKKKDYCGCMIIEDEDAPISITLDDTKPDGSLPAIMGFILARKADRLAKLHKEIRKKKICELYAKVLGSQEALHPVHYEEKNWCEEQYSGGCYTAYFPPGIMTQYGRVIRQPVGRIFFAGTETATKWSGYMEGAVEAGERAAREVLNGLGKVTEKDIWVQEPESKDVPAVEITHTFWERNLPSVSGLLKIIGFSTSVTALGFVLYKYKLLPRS

[14] = biological target: Norepinephrine transp. (Homo sapiens, UniProt P23975); assay: CNS selectivity panel: Norepinephrine transp.; assay type: binding; details: 1 uM
[15] = biological target: AchE (Homo sapiens, UniProt P22303); assay: AchE activity (IC50); assay type: biochemical
[16] = biological target: T4, Serotonin 5-HT2c (Homo sapiens, UniProt P28335); assay: CNS selectivity panel: Serotonin 5-HT2c; assay type: binding; details: 1 uM
T4 sequence (P28335 33-458): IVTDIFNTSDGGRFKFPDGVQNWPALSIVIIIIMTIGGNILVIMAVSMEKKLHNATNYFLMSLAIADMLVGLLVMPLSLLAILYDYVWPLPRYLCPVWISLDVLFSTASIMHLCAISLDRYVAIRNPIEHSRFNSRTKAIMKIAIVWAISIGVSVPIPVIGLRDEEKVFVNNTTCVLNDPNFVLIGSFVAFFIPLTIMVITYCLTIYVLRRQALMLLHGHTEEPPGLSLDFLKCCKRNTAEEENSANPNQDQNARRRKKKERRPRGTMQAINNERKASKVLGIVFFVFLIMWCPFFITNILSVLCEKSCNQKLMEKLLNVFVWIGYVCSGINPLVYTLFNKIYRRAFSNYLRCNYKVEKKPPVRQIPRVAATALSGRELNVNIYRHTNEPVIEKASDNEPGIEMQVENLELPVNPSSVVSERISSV

[17] = test system: Monoamine transp.; assay: CNS selectivity panel: Monoamine transp.; assay type: binding; details: 1 uM
[18] = biological target: Dopamine transp. (Homo sapiens, UniProt Q01959); assay: CNS selectivity panel: Dopamine transp.; assay type: binding; details: 1 uM
[19] = test system: tau/amyloid; assay: Tx/tau/amyloid correlation; assay type: binding
[20] = Brain uptake after intravenous injection into mice; assay type: in vivo; details: injected intravenously into mice
Excerpt: (§2) When injected intravenously into mice, the Carbazole based compounds; in particular T807, T805 and T794 have shown excellent brain uptake. These compounds also display high binding affinity to tau fibrils. […] In neuropathological staining, compounds of the present invention stained amyloid plaques and/or tau aggregates.

[21] = test system: human hepatocytes; assay: Metabolism in human hepatocytes; assay type: in vitro ADME
[22] = test system: Glutamate, NMDA; assay: CNS selectivity panel: Glutamate, NMDA; assay type: binding; details: 1 uM
[23] = biological target: T5, tau (Homo sapiens, UniProt P10636); assay: KD (tau) binding
T5 construct: Native forms of tau (various isoforms, hyperphosphorylated) and amyloid aggregates are present in brain sections and therefore preferred for compound testing
Excerpt: as §2, §1

T5 sequence (P10636 623-758 limits assumed): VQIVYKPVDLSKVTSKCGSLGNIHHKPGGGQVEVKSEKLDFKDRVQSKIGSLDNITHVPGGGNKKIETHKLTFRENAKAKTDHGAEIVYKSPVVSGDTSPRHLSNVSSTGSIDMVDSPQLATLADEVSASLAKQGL
Sequence of AchE (P22303 32-614): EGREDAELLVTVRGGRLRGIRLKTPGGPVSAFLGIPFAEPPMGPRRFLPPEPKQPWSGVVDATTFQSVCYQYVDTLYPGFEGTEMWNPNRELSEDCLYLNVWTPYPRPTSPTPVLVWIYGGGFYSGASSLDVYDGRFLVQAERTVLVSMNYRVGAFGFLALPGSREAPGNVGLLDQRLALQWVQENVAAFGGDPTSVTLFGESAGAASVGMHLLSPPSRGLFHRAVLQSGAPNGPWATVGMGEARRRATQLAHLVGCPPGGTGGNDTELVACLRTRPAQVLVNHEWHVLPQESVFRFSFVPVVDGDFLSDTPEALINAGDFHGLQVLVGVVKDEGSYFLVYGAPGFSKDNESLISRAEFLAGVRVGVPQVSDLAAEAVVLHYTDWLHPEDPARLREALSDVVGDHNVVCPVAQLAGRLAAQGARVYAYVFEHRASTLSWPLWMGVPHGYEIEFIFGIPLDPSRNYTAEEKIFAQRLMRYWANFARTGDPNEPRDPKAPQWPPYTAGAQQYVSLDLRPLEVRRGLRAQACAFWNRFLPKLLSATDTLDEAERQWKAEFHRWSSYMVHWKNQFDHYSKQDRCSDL
Sequence of fibrils (Aβ1-42) (P05067 672-713 limits assumed): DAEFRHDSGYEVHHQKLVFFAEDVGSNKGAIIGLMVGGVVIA
Sequence of oligomers/polymers (Aβ1-42) (P05067 672-713 limits assumed): as above
T1 sequence (P05067 672-713 limits assumed): as above
Sequence of Dopamine transp. (Q01959 whole entry): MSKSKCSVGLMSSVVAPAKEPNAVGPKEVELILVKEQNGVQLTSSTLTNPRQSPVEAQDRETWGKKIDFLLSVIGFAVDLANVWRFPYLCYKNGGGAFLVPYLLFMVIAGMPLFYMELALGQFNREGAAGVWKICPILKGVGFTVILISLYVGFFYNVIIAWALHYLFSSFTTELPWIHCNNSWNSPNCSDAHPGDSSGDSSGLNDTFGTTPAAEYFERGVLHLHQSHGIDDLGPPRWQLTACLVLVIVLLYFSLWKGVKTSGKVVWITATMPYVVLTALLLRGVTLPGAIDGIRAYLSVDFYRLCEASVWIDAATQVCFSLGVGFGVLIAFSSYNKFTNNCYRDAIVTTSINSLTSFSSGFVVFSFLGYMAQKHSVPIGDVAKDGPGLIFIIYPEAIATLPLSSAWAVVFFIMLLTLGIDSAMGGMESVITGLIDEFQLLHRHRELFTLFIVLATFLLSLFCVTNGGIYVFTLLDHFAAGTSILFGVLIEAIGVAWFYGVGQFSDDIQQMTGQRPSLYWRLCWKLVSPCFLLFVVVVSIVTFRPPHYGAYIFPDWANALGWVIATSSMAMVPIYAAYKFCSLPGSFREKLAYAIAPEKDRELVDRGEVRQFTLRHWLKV
Sequence of Norepinephrine transp. (P23975 whole entry): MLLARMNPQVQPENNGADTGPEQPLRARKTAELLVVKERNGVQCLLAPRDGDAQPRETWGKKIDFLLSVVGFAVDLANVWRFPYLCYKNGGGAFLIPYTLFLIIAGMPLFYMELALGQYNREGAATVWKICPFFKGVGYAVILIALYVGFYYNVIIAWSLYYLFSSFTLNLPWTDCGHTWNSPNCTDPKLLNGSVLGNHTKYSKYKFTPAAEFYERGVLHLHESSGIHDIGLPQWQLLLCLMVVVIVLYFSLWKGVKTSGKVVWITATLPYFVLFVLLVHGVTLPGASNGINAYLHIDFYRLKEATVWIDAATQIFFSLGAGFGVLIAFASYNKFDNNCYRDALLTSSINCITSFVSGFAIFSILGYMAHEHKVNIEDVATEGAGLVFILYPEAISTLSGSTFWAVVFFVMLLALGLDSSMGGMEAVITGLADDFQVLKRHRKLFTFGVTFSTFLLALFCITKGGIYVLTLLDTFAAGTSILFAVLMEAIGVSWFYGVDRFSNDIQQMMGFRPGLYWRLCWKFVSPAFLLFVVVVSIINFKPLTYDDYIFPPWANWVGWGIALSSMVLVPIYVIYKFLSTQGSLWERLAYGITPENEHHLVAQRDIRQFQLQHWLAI

For `[11CH3]Nc1ccc(-c2cc3ccc(O)cc3o2)cc1`, the Ki [1] is listed as 2.8 nM.

In the case of `Oc1ccc2c(c1)[nH]c1ccccc12` [2-Hydroxycarbazole], the “Binding to oligomers/polymers (Aβ1-42)” value [2] is reported as “+++” and the “Binding to fibrils (Aβ1-42)” value [3] is reported as “+”.

With `FCCOc1ccc2c(c1)[nH]c1ccccc12` [CB-001, 2-(2-fluoroethoxy)-9H-carbazole] the non-specific binding propensity ([4]; compared to FDDNP) was “lower”, the “Grey/white matter binding ratio using harsh FDDNP wash conditions” value ([4]; harsh FDDNP wash: 70%/90%/70% EtOH:water) was “Excellent” and the “Grey/white matter binding ratio using mild wash conditions” value ([4]; mild wash: 30%/40%/20% EtOH:water) was “Poor”. For the same compound, the “grey to white matter ratio” value ([4]; original wash, text b480) was “much better” and the “brain entry and washout” value [5] was “entered the rat brain and quickly washed out”.

With `CC(=C(C#N)C#N)c1ccc2cc(N(C)CCF)ccc2c1` [FDDNP] the “blocking of [18F]-CB001 staining” value [6] was “much less capable of blocking”.

In the case of `CNc1ccc(-c2nc3ccc(O)cc3s2)cc1` [PiB], the “blocking of [18F]-CB001 staining” value [6] is reported as “blocks [18F]-CB001 staining with increasing concentrations”.

With `Cc1cnc2c(c1)[nH]c1cc(OCCF)ccc12` [T703, 7-(2-fluoroethoxy)-3-methyl-5H-pyrido[3,2-b]indole] the inhibition at 1 µM [7] was 0%, the Brain uptake [8] was “Yes” and the “CNS selectivity panel (targets named)” value [9] was “NET, σl”. For the same compound, the “background (normal brain 32566) PSL/mm2” value [10] was 15 PSL/mm2, the “GM Intensity (comp. with W372)” value [11] was 6% and the “selectivity (tau/Ab)” value [12] was 16x. It also gave an inhibition at 1 µM [13] of 16%.

With `FCCCc1ccc2c(c1)[nH]c1ccncc12` [T794, 7-(3-Fluoropropyl)-5H-pyrido[4,3-b]indole] the “CNS selectivity panel: Norepinephrine transp.” value [14] was “transp.(49%)”, the IC50 [15] was 5000 nM and the inhibition at 1 µM [7] was 0%. The “CNS selectivity panel: Serotonin 5-HT2c” value [16] was “(33%)”, the “CNS selectivity panel: Monoamine transp.” value [17] was “transp. (41%)” and the “CNS selectivity panel: Dopamine transp.” value [18] was “transp.(34%)”. For the same compound, the Brain uptake [8] was “yes (4 rats, 4 mice)”, the Tx/tau/amyloid correlation [19] was “yes” and the Brain uptake [20] was “excellent”. For the same compound, the “background (normal brain 32566) PSL/mm2” value [10] was 97 PSL/mm2, the “GM Intensity (comp. with W372)” value [11] was 14% and the “selectivity (tau/Ab)” value [12] was 17x. For the same compound, the “human hepatocytes (metabolic stability)” value [21] was “stable”, the “CNS selectivity panel: Glutamate, NMDA” value [22] was “(44%) Monoamine” and the Kd ([23]; FIG. 2 legend, [18F] tracer, read-out: KD) was 30 nM. It also gave an inhibition at 1 µM [13] of 19%.

With `FCCc1ccc2c(c1)[nH]c1ccncc12` [T805, 7-(2-Fluoroethyl)-5H-pyrido[4,3-b]indole] the “AchE activity, effect at 10 uM” value ([15]; at 10 uM) was <50% at 10 uM, the inhibition at 1 µM [7] was 0% and the Brain uptake [8] was “yes (2 rats, 2 mice)”. The Brain uptake [20] was “excellent”, the “background (normal brain 32566) PSL/mm2” value [10] was 49 PSL/mm2 and the “GM Intensity (comp. with W372)” value [11] was 8%. The “selectivity (tau/Ab)” value [12] was 14x, the Kd ([23]; read-out: KD (tau)) was 32 nM and the inhibition at 1 µM [13] was 0%.

In the case of `Fc1ccc(-c2ccc3c(c2)[nH]c2ccncc23)cn1` [T807, 7-(6-Fluoropyridine-3-yl)-5H-pyrido[4,3-b]indole], the IC50 [15] is reported as 6000 nM, the inhibition at 1 µM [7] is reported as 0% and the Brain uptake [8] is reported as “yes (3 rats, 3 mice)”. For the same compound, the Tx/tau/amyloid correlation [19] was “yes”, the Brain uptake [20] was “excellent” and the “background (normal brain 32566) PSL/mm2” value [10] was 61 PSL/mm2. The “GM Intensity (comp. with W372)” value [11] was 28%, the “selectivity (tau/Ab)” value [12] was 29x and the “human hepatocytes (metabolic stability)” value [21] was “somewhat stable”. It also gave a Kd ([23]; read-out: KD (tau)) of 15 nM and an inhibition at 1 µM [13] of 0%.

In the case of Harmol, the “Binding to oligomers/polymers (Aβ1-42)” value [2] is reported as “++” and the “Binding to fibrils (Aβ1-42)” value [3] is reported as “+”.

From US20150030540A1 (Eli Lilly and Company, priority 2008, published 2015)
